Test results from ChEMBL document CHEMBL1154387, “Discovery of novel non-peptide inhibitors of BACE-1 using virtual high-throughput screening” (Bioorg Med Chem Lett, 2009).

Key:
Beta-secretase 1 [1] = target: T1, Beta-secretase 1 (Homo sapiens, UniProt P56817); assay: Inhibition of human recombinant BACE1; set-up: concentration or dose not given beside the values; conditions: concentration not given here
Beta-secretase 1 [2] = target: T1, Beta-secretase 1; assay: Inhibition of human recombinant BACE1 at 100 uM

T1 sequence (P56817 whole entry): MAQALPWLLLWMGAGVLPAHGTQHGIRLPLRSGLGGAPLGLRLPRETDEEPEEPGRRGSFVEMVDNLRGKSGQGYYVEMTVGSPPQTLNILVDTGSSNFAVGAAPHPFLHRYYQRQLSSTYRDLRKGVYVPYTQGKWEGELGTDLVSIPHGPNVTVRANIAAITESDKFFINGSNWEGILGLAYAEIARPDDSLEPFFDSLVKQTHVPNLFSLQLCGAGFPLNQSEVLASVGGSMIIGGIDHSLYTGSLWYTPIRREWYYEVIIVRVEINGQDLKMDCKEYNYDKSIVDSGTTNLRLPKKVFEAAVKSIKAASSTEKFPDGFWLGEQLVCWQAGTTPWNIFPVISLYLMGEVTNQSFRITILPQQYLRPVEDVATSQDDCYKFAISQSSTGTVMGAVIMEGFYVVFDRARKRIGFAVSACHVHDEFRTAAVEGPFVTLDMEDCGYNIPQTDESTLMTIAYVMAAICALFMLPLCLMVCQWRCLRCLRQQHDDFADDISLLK

| Structure (SMILES) | inhibition (Beta-secretase 1 [1]) [%] | IC50 (Beta-secretase 1 [2]) [µM] |
| --- | --- | --- |
| Cc1ccc(NC(=O)CN2C(=O)/C(=N\NC(=O)c3cccc([N+](=O)[O-])c3)c3ccccc32)cc1 | 28.8 |  |
| COc1ccc([N+](=O)[O-])cc1C(=O)N/N=C1\C(=O)N(CC(=O)Nc2ccc(C)cc2)c2ccccc21 | 20.2 |  |
| Cc1ccc(NC(=O)CN2C(=O)/C(=N\NC(=O)c3ccccc3O)c3ccccc32)cc1 | 71.1 |  |

The next lines start with the values.

| inhibition (Beta-secretase 1 [1]) [%] | IC50 (Beta-secretase 1 [2]) [µM] | Structure (SMILES) |
| --- | --- | --- |
| 35.2 |  | O=C1Nc2ccccc2/C1=N/NC(=O)c1cc([N+](=O)[O-])ccc1O |
| 92 | 4.8 | O=C(CN1C(=O)/C(=N\NC(=O)c2cc([N+](=O)[O-])ccc2O)c2ccccc21)NC1CCCCC1 |
| 74.6 |  | O=C(CN1C(=O)/C(=N\NC(=O)c2cc([N+](=O)[O-])ccc2O)c2ccccc21)Nc1ccc(C(F)(F)F)cc1 |
| 14.3 |  | CN1C(=O)/C(=N\NC(=O)c2cc([N+](=O)[O-])ccc2O)c2ccccc21 |
| 84.5 | 2.4 | Cc1ccc(NC(=O)CN2C(=O)/C(=N\NC(=O)c3cc([N+](=O)[O-])ccc3O)c3ccccc32)cc1 |
